In US20230257396A1, “MACROCYCLES AND THEIR USE” (BLOSSOMHILL THERAPEUTICS, INC., priority 2020, published 2023):
Numbering of substitutions follows the chain as printed.

What was measured:
Test in all cases: KINOMEscan kinase binding assay (Eurofins/DiscoveRx), % Ctrl
kinases [1] = molecular target: T1, kinases (Homo sapiens, UniProt P00519, E255K)
T1 construct: purchased Eurofins/DiscoveRx; host or cells: E. coli BL21-derived host (T7 phage display) for most kinases; HEK-293 for the rest
Procedure, shortened: (§1)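 Competition binding, 1 h RT: phage-tagged or HEK-293-expressed DNA-tagged kinase + immobilized ligand + compound. Eluate kinase by qPCR. % Ctrl = (test − positive ctrl)/(negative ctrl − positive ctrl) × 100; lower means stronger binding.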

kinases [2] = molecular target: T2, kinases (Homo sapiens, UniProt P00533, L858R)
T2 construct: purchased Eurofins/DiscoveRx; host or cells: E. coli BL21-derived host (T7 phage display) for most kinases; HEK-293 for the rest
Procedure, shortened: as §1

kinases [3] = molecular target: T3, kinases (Homo sapiens, UniProt P00533, L861Q)
T3 construct: purchased Eurofins/DiscoveRx; host or cells: E. coli BL21-derived host (T7 phage display) for most kinases; HEK-293 for the rest
Procedure, shortened: as §1

kinases [4] = molecular target: T4, kinases (Homo sapiens, UniProt P10721, D816V)
T4 construct: purchased Eurofins/DiscoveRx; host or cells: E. coli BL21-derived host (T7 phage display) for most kinases; HEK-293 for the rest
T4 sequence (P10721 26-976 D816V): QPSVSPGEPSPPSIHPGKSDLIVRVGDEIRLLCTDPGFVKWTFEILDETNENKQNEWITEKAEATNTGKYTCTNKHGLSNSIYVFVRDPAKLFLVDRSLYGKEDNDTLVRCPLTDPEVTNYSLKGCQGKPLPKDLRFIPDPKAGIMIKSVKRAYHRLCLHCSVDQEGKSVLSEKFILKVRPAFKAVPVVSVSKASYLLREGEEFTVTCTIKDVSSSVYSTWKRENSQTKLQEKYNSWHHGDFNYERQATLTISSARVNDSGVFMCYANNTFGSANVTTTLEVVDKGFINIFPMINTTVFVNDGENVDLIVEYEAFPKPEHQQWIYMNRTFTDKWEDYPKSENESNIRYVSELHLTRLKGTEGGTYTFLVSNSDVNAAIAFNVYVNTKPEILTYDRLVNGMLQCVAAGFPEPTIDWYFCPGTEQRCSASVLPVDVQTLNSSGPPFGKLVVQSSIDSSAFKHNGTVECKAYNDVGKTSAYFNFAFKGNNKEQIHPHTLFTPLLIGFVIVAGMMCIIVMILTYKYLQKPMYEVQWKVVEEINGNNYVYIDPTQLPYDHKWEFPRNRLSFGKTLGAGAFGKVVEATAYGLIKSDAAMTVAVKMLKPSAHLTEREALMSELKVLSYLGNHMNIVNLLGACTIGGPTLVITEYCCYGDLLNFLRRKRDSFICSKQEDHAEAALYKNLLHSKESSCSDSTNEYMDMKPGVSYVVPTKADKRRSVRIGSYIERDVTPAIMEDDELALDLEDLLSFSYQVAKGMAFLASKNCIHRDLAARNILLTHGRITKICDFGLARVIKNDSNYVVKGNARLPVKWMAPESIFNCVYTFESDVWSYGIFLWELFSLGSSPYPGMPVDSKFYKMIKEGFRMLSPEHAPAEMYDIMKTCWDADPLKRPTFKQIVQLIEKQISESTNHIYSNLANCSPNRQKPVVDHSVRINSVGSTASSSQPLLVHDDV
Procedure, shortened: as §1

kinases [5] = molecular target: T5, kinases (Homo sapiens, UniProt P36888, D835H)
T5 construct: purchased Eurofins/DiscoveRx; host or cells: E. coli BL21-derived host (T7 phage display) for most kinases; HEK-293 for the rest
T5 sequence (P36888 27-993 D835H): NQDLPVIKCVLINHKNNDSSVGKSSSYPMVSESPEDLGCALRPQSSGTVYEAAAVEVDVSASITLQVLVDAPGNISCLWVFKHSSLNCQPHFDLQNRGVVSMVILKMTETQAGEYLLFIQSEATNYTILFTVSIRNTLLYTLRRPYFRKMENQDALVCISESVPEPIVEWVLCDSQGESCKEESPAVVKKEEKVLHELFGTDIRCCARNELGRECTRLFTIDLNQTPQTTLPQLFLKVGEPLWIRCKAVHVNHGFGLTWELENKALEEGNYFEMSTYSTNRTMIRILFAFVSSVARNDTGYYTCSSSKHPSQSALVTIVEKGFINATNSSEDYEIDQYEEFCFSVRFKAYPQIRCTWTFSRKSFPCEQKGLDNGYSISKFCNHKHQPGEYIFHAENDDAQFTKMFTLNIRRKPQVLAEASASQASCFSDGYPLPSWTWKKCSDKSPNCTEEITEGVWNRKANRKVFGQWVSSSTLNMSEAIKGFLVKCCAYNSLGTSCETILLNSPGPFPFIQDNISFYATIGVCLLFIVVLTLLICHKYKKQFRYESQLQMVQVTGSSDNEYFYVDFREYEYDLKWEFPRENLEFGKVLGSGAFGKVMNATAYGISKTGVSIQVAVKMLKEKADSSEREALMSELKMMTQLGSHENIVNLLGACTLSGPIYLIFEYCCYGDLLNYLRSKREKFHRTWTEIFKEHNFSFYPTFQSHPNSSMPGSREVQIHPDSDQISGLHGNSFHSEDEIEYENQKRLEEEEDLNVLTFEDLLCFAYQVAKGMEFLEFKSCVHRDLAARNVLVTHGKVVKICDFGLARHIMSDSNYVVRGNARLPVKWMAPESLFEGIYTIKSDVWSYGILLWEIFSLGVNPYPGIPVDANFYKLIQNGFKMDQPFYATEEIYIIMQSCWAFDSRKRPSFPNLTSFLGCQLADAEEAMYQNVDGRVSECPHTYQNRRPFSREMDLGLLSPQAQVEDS
Procedure, shortened: as §1

kinases [6] = molecular target: T6, kinases (Homo sapiens, UniProt P36888, D835V)
T6 construct: purchased Eurofins/DiscoveRx; host or cells: E. coli BL21-derived host (T7 phage display) for most kinases; HEK-293 for the rest
T6 sequence (P36888 27-993 D835V): T5 sequence (P36888 27-993 D835H) with H809V
Procedure, shortened: as §1

[7] = 1 μM; ABL1(E255K)-phosphorylated
[8] = target ABL1(E255K)-phosphorylated; 1 μM

T1 sequence (P00519 whole entry E255K): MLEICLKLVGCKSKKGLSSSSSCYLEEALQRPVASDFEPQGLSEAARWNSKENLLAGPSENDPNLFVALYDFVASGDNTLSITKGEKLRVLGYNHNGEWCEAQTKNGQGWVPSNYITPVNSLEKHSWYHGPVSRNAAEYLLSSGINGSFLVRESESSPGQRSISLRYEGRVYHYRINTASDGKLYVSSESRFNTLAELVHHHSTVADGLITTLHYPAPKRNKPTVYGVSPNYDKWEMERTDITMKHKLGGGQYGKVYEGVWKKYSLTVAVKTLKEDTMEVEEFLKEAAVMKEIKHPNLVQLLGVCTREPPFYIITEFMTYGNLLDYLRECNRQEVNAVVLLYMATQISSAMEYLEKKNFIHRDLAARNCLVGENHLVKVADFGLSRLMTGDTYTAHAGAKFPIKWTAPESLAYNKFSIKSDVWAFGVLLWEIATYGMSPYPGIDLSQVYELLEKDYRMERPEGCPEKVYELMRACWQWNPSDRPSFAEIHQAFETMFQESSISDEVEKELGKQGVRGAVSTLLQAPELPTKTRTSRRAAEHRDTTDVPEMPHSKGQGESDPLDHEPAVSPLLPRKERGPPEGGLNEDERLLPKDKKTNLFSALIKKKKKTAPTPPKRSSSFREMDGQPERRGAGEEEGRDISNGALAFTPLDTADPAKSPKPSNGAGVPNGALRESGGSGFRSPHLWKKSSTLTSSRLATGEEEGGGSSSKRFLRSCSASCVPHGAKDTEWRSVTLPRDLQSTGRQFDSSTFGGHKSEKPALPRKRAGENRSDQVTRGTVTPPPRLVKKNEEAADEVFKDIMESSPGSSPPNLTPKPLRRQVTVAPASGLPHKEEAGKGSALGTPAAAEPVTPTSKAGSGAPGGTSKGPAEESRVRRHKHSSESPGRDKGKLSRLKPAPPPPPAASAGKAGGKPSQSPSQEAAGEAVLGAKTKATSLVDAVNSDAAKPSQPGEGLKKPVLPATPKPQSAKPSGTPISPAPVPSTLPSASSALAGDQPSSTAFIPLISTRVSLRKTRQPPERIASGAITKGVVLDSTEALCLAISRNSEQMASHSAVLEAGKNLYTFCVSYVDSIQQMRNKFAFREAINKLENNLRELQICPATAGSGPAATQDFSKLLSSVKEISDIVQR

SMILES | % Ctrl, ABL1(E255K)-phosphorylated (kinases [1]; [7]) | % Ctrl, EGFR(L858R) (kinases [2]; 1 μM; EGFR(L858R)) | % Ctrl, EGFR(L861Q) (kinases [3]; 1 μM; EGFR(L861Q)) | % Ctrl, KIT(D816V) (kinases [4]; 1 μM; KIT(D816V)) | % Ctrl, FLT3(D835H) (kinases [5]; 1 μM; FLT3(D835H)) | % Ctrl, FLT3(D835V) (kinases [6]; 1 μM; FLT3(D835V)) | also measured
Cc1cc2c([nH]1)/C=C1\C(=O)Nc3cnc(cc31)-c1cnn(C)c1COCCNC2=O [Ex.123, [3a(4)Z]-6,14-dimethyl-10,11,13,14-tetrahydro-2H-17,1-(azenometheno)pyrazolo[4,3-m]dipyrrolo[3,2-f:3′,4′-i][1,4]oxazacyclopentadecine-3,8(5H,9H)-dione] | 92 % Ctrl | 94 % Ctrl | 100 % Ctrl | 100 % Ctrl | 88 % Ctrl | 91 % Ctrl | 
Cc1cc2c([nH]1)/C=C1\C(=O)Nc3cnc(cc31)-c1cn[nH]c1CNCCN(C)C2=O [Ex. 55, [3a(4)Z]-6,9-dimethyl-9,10,11,12,13,14-hexahydro-17,1-(azenometheno)pyrazolo[4,3-m]dipyrrolo[3,2-f:3′,4′-i][1,4]diazacyclopentadecine-3,8(2,5H)-dione] |  |  |  |  |  |  | % Ctrl, ABL1(E255K)-phosphorylated (kinases [1]; [8]): 2.6 % Ctrl; % Ctrl, EGFR(L858R) (kinases [2]; target EGFR(L858R); 1 μM): 88 % Ctrl; % Ctrl, EGFR(L861Q) (kinases [3]; target EGFR(L861Q); 1 μM): 58 % Ctrl; % Ctrl, KIT(D816V) (kinases [4]; target KIT(D816V); 1 μM): 1.3 % Ctrl; % Ctrl, FLT3(D835H) (kinases [5]; target FLT3(D835H); 1 μM): 2.7 % Ctrl; % Ctrl, FLT3(D835V) (kinases [6]; target FLT3(D835V); 1 μM): 1.1 % Ctrl
Cc1cc2c([nH]1)/C=C1\C(=O)Nc3ccc(cc31)OCCOCCNC2=O [Ex. 129, [16a(17)Z]-2-methyl-6,7,9,10-tetrahydro-1H-12,14-(ethanediylidene)dipyrrolo[3,2-i:3′,4′-l][1,4,7]dioxazacyclopentadecine-4,16(5H,15H)-dione] | 89 % Ctrl | 100 % Ctrl | 81 % Ctrl | 93 % Ctrl | 44 % Ctrl | 17 % Ctrl | 
Cc1cc2c([nH]1)/C=C1\C(=O)Nc3ccc(cc31)OCCOCCN(C)C2=O [Ex.91, [16a(17)Z]-2,5-dimethyl-6,7,9,10-tetrahydro-1H-12,14-(ethanediylidene)dipyrrolo[3,2-i:3′,4′-l][1,4,7]dioxazacyclopentadecine-4,16(5H,15H)-dione] | 14 % Ctrl | 100 % Ctrl | 66 % Ctrl | 20 % Ctrl | 1.2 % Ctrl | 0.05 % Ctrl | 
CNC(=O)[C@H]1CN(C)C(=O)c2cc(C)[nH]c2/C=C2\C(=O)Nc3cc(Cl)c(cc32)OCCO1 [Ex. 135, [7R,16a(17)Z]-19-chloro-N,2,5-trimethyl-4,16-dioxo-4,5,6,7,9,10,15,16-octahydro-1H-12,14-(ethanediylidene)dipyrrolo[3,2-i:3′,4′-l][1,4,7]dioxazacyclopentadecine-7-carboxamide] | 56 % Ctrl | 93 % Ctrl | 86 % Ctrl | 76 % Ctrl | 37 % Ctrl | 6 % Ctrl | 
CN1CCOc2cc3c(cc2Cl)NC(=O)/C3=C\c2[nH]ccc2C(=O)N(C)CC1 [Ex. 164, [16a(17)Z]-19-chloro-2,5,8-trimethyl-5,6,7,8,9,10-hexahydro-12,14-(ethanediylidene)dipyrrolo[3,2-i:3′,4′-l][1,4,7]oxadiazacyclopentadecine-4,16(1H,15H)-dione] |  |  |  |  |  |  | % Ctrl, ABL1(E255K)-phosphorylated (kinases [1]; 1 μM; target ABL1(E255K)-phosphorylated): 0.1 % Ctrl; % Ctrl, EGFR(L858R) (kinases [2]; 1 μM; target EGFR(L858R)): 45 % Ctrl; % Ctrl, EGFR(L861Q) (kinases [3]; 1 μM; target EGFR(L861Q)): 63 % Ctrl; % Ctrl, KIT(D816V) (kinases [4]; 1 μM; target KIT(D816V)): 3.3 % Ctrl; % Ctrl, FLT3(D835H) (kinases [5]; 1 μM; target FLT3(D835H)): 0.3 % Ctrl; % Ctrl, FLT3(D835V) (kinases [6]; 1 μM; target FLT3(D835V)): 1.1 % Ctrl
Cc1cc2c([nH]1)/C=C1\C(=O)Nc3ccc(cc31)-c1ccnn1CCOCCN(C)C2=O [Ex. 41, [19a(20)Z]-2,5-dimethyl-6,7,9,10-tetrahydro-1H-15,17-(ethanediylidene)pyrazolo[1,5-d]dipyrrolo[3,4-h:2′,3′-k][1,4,14]oxadiazacyclohexadecine-4,19(5H,18H)-dione] | 49 % Ctrl | 93 % Ctrl | 91 % Ctrl | 38 % Ctrl | 5.2 % Ctrl | 0.25 % Ctrl | 
Cc1cc2c([nH]1)/C=C1\C(=O)Nc3ccc(cc31)-c1c(noc1C)COCCN(C)C2=O [Ex. 128, [3a(4)Z]-6,9,16-trimethyl-1,11-dihydro-2H,13H-1,17-(ethanediylidene)[1,4]oxazolo[4,3-m]dipyrrolo[3,2-f:3′,4′-i][1,4]oxazacyclopentadecine-3,8(5H,9H)-dione] | 25 % Ctrl | 88 % Ctrl | 100 % Ctrl | 84 % Ctrl | 23 % Ctrl | 1.7 % Ctrl | 
Cc1cc2c([nH]1)/C=C1\C(=O)Nc3ccc(cc31)-c1c(noc1C)CNCCN(C)C2=O [Ex. 139, [3a(4)Z]-6,9,16-trimethyl-10,11,12,13-tetrahydro-2H-1,17-(ethanediylidene)[1,2]oxazolo[4,3-m]dipyrrolo[3,2-f:3′,4′-i][1,4]diazacyclopentadecine-3,8(5H,9H)-dione] |  |  |  |  |  |  | % Ctrl, ABL1(E255K)-phosphorylated (kinases [1]; [8]): 4.7 % Ctrl; % Ctrl, EGFR(L858R) (kinases [2]; target EGFR(L858R); 1 μM): 80 % Ctrl; % Ctrl, EGFR(L861Q) (kinases [3]; target EGFR(L861Q); 1 μM): 88 % Ctrl; % Ctrl, KIT(D816V) (kinases [4]; target KIT(D816V); 1 μM): 63 % Ctrl; % Ctrl, FLT3(D835H) (kinases [5]; target FLT3(D835H); 1 μM): 14 % Ctrl; % Ctrl, FLT3(D835V) (kinases [6]; target FLT3(D835V); 1 μM): 0.9 % Ctrl
